Source: patent publication US5624923A, “Tricyclic diazepine vasopressin antagonists and oxytocin antagonists” (priority 1995, dated 1997)

How the values were obtained:
[1] = biological target: T1, V1 Receptor Subtype in Human Platelet (Homo sapiens, UniProt P37288); test: Binding to Vasopressin V1 receptor subtype in Human Platelet Membranes; settings: human platelet membranes
T1 construct: tissue Hudson Valley Blood Services, Westchester Medical Center, Valhalla, N.Y; host or cells: human platelets (frozen platelet rich plasma)
T1 sequence (P37288 whole entry): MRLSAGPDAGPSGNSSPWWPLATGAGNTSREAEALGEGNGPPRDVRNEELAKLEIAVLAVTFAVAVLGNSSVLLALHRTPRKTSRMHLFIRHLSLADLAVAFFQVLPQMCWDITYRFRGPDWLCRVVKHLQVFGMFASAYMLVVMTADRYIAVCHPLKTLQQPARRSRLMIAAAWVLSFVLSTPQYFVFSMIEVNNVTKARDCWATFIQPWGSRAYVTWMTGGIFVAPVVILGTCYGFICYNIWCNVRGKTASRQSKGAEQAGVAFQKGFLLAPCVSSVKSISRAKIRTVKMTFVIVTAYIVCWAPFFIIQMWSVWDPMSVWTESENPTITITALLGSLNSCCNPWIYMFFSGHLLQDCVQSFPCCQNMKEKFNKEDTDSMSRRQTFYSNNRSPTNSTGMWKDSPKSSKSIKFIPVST
Protocol: Radioligand Binding Experiments with Human Platelet Membranes (a) Platelet Membrane Preparation: Frozen platelet rich plasma (PRP), (Platelet Source: Hudson Valley Blood Services, Westchester Medical Center, Valhalla, N.Y.) are thawed to room temperature. The tubes containing the PRP are centrifuged at 16,000×g for 10 min. at 4° C. and the supernatant fluid discarded. […] The suspension is recentrifuged at 16,000× g for 10 min. This washing step is repeated one more time. The wash discarded and the lysed pellets homogenized in low ionic strength buffer of Tris.HCl, 5.0 mM, pH 7.5 containing 5.0 mM EDTA. The homogenate is centrifuged at 39,000× g for 10 min. The resulting pellet is resuspended in Tris. […] The final pellet is resuspended in 50.0 mM Tris. HCl buffer pH 7.4 containing 120 mM NaCl and 5.0 mM KCl to give 1.0-2.0 mg protein per ml of suspension. […] Platelet Membranes […] Then add 20 μl of [^3 H]Ligand (Manning or […] Vasopressin), to give final concentrations ranging from 0.01 to 10.0 nM. Initiate the binding by adding 80.0 μl of platelet suspension (approx. 100 μg protein). Mix all reagents by pipetting the mixture up and down a few times. Non specific binding is measured in the presence of 1.0 μM of unlabeled ligand (Manning or […] Vasopressin). Let the mixture stand undisturbed at room temperature for ninety (90) min. Upon this time, rapidly filter off the incubate under vacuum suction over GF/B filters, using a Brandel Harvester. Determine the radioactivity caught on the filter disks by the addition of liquid scintillant and counting in a liquid scintillator.

[2] = biological target: T2, Human V2 Vasopressin Receptor (Homo sapiens, UniProt P30518); test: Binding to Membranes of Mouse Fibroblast Cell Line (LV-2) Transfected with the cDNA Expressing the Human V2 Vasopressin Receptor; settings: LV-2 cell membranes, human V2; read-out: V2 IC50 (**)
T2 construct: expressed in transfected cells; host or cells: mouse fibroblast cell line LV-2
T2 sequence (P30518 whole entry): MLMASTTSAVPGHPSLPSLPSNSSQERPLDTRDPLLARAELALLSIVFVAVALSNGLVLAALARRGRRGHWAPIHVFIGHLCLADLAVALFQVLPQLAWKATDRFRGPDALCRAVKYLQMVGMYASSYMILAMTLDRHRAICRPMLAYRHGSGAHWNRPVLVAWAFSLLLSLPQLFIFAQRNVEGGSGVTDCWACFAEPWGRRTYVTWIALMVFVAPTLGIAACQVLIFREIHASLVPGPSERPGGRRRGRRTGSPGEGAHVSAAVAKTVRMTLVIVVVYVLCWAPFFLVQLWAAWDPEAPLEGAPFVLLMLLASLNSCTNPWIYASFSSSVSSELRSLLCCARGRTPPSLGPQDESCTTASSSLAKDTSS
Protocol: Binding to Membranes of Mouse Fibroblast Cell Line (LV-2) Transfected with the cDNA Expressing the Human V2 Vasopressin Receptor
Flasks of 175 ml capacity, containing attached cells grown to confluence, are cleared of culture medium by aspiration. The flasks containing the attached cells are rinsed with 2×5 ml of phosphate buffered saline (PBS) and the liquid aspirated off each time. Finally, 5 ml of an enzyme free dissociation Hank's based solution (Specialty Media, Inc., Lafayette, N.J.) is added and the flasks are left undisturbed for 2 min. The content of all flasks is. poured into a centrifuge tube and the cells pelleted at 300× g for 15 min. The Hank's based solution is aspirated off and the cells homogenized with a polytron at setting #6 for 10 sec in 10.0 mM Tris.HCl buffer, pH 7.4 containing 0.25M sucrose and 1.0 mM EDTA. The homogenate is centrifuged at 1500× g for 10 min to remove ghost membranes. The supernatant fluid is centrifuged at 100,000× g for 60 min. to pellet the receptor protein. Upon completion, the pellet is resuspended in a small volume of 50.0 mM Tris. HCl buffer, pH 7.4. The protein content is determined by the Lowry method and the receptor membranes are suspended in 50.0 mM Tris.HCl buffer containing 0.1 mM phenylmethylsulfonylfluoride (PMSF) and 0.2% bovine serum albumin (BSA) to give 2.5 mg receptor protein per ml of suspension.
Arginine^8, vasopressin (S.A. 75.0 Ci/mmole) at 0.8 nM and the reaction initiated by the addition of 80.0 μl of tissue membranes (200.0 μg tissue protein). The plates are left undisturbed on the bench top for 120 min to reach equilibrium. Non specific binding is assessed in the presence of 1.0 μM of unlabeled ligand, added in 20 μl volume. For test compounds, these are solubilized in 50% dimethylsulfoxide (DMSO) and added in 20.0 μl volume to a final incubation volume of 200 μl. Upon completion of binding, the content of each well is filtered off, using a Brandel® cell Harvester (Gaithersburg, Md.). The radioactivity trapped on the filter disk by the ligand-receptor complex is assessed by liquid scintillation counting in a Packard LS Counter, with an efficiency of 65% for tritium. The data are analyzed for IC50 values by the LUNDON-2 program for competition (LUNDON SOFTWARE, Ohio).

[3] = test system: Vasopressin V2; test: Vasopressin V2 Antagonist Activity in Conscious Hydrated Rats; format: in vivo, rat; settings: 10 mg/kg orally, AVP 0.4 μg/kg i.p.
Method in brief: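 Four-hour urine output, osmolality and electrolytes (Na+, K+, Cl−) recorded in water-loaded rats (30 mL/kg deionized water orally) given AVP i.p. at 0.4 μg/kg. Test compounds were given orally at 0.1–100 mg/kg 1 h before AVP; 2–4 rats per compound.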

[4] = biological target: T3, oxytocin receptors (Rattus norvegicus, UniProt P70536); test: Oxytocin Receptor Binding; settings: for IC50: 1.0 nM [3H]oxytocin; for inhibition at 10 µM: [3H]oxytocin
T3 construct: The uteri are dissected out, cleaned of fat and connective tissues; from tissue; host or cells: uterus of DES-treated female Sprague-Dawley rats
T3 sequence (P70536 1-388): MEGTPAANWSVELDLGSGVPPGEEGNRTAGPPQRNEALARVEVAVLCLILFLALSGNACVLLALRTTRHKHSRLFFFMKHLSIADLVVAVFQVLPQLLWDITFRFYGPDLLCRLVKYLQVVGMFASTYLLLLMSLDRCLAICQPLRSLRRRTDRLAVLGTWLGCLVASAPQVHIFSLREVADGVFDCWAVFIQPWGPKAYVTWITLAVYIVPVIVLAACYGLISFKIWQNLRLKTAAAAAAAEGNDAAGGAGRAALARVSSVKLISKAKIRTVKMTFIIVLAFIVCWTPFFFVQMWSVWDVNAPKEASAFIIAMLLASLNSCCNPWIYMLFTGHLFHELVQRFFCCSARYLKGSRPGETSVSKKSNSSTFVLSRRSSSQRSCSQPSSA
Method in brief: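 IC50 is the concentration displacing 50% of 1.0 nM [3H]OT, incubated 60 min at 22 °C in pH 7.4 Tris/MgCl2 buffer plus protease inhibitors, then filtered. Receptor source: uterine membranes from rats given 0.3 mg/kg DES i.m. 18 h earlier. 1.0 uM cold OT defined non-specific binding.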

With `O=C(Nc1ccc(C(=O)N2Cc3ccc(Cl)n3Cc3ccccc32)cc1)c1ccc(Cl)cc1Cl` [Example 54, N-[4-(3-Chloro-5H-pyrrolo[2,1-c]-[1,4]benzodiazepin-10(11H)yl-carbonyl)phenyl]-2,4-dichloro-benzamide] the IC50 [1] was 0.31 µM, the IC50 [2] was 0.007 µM and the Osmolality [3] was 1275 mOsm/kg. The “Urine Volume” value [3] was 5 ml/4 hrs, the IC50 [4] was 0.16 µM and the inhibition at 10 µM [4] was 94%.

In the case of `O=C(Nc1ccc(C(=O)N2Cc3ccnn3Cc3ccccc32)c(Cl)c1)c1ccc(Cl)cc1Cl` [Example 520, N-[4-(4H-Pyrazolo[5,1-c][1,4]benzodiazepin-5(10H)-ylcarbonyl)-3-chlorophenyl]-2,4-dichlorobenzamide], the IC50 [1] is reported as 0.85 µM, the IC50 [2] is reported as 0.0044 µM and the Osmolality [3] is reported as 394 mOsm/kg. The “Urine Volume” value [3] was 18.5 ml/4 hrs, the IC50 [4] was 2.2 µM and the inhibition at 10 µM [4] was 79%.

With `O=C(Nc1ccc(C(=O)N2Cc3cccn3Cc3ccccc32)c(Cl)c1)c1ccccc1Cl` [Example 526, N-[4-(5H-pyrrolo[2,1-c][1,4]benzodiazepin-10(11H)-ylcarbonyl]-3-chlorophenyl]-2-chlorobenzamide] the IC50 [1] was 0.05 µM, the IC50 [2] was 0.0033 µM and the Osmolality [3] was 455 mOsm/kg. The “Urine Volume” value [3] was 17.8 ml/4 hrs, the IC50 [4] was 0.47 µM and the inhibition at 10 µM [4] was 97%.

Work on `CSc1ccccc1C(=O)Nc1ccc(C(=O)N2Cc3cccn3Cc3ccccc32)c(Cl)c1` [Example 524, N-[4-(5H-pyrrolo[2,1-c][1,4]benzodiazepin-10(11H)-ylcarbonyl)-3-chlorophenyl]-2-(thiomethylbenzamide)] yielded an IC50 [1] of 0.17 µM, an IC50 [2] of 0.0012 µM and an Osmolality [3] of 528 mOsm/kg. For the same compound, the “Urine Volume” value [3] was 10 ml/4 hrs, the IC50 [4] was 1.8 µM and the inhibition at 10 µM [4] was 84%.

`Cc1ccccc1C(=O)Nc1ccc(C(=O)N2Cc3ccnn3Cc3ccccc32)c(Cl)c1` [Example 519, N-[4-(4H-Pyrazolo[5,1-c][1,4]benzodiazepin-5(10H)-ylcarbonyl)-3-chlorophenyl]-2-methylbenzamide] was tested, and the IC50 [1] was 0.12 µM, the IC50 [2] was 0.0032 µM and the Osmolality [3] was 399 mOsm/kg. The “Urine Volume” value [3] was 19.9 ml/4 hrs, the IC50 [4] was 0.48 µM and the inhibition at 10 µM [4] was 97%.

Work on `O=C(Nc1ccc(C(=O)N2Cc3cccn3Cc3ccccc32)c(Cl)c1)c1c(Cl)cccc1Cl` [Example 529, N-(4-(5H-pyrrolo[2,1-c][1,4]benzodiazepin-10(11H-)-ylcarbonyl]-3-chlorophenyl]-2,6-dichlorobenzamide] yielded an IC50 [1] of 0.99 µM, an IC50 [2] of 0.002 µM and an Osmolality [3] of 569 mOsm/kg. The “Urine Volume” value [3] was 10.5 ml/4 hrs, the IC50 [4] was 0.45 µM and the inhibition at 10 µM [4] was 92%.
